Legend:
[1] = cohorts 1-4
Excerpt: (§1) Healthy subjects receive a single dose of drug at the highest dose studied in the liver-impaired subjects in order to make relative comparison to the PK aspects of Nalbuphine extended release (ER).
(§2) Cohort 1 consists of subjects with impaired hepatic function divided into three groups with some subjects in each of the mild Child-Pugh A category (Group 1), the moderate Child-Pugh B category (Group 2), and the severe Child-Pugh category C (Group 3). Cohort 2-4 consists of subjects with impaired hepatic function divided into two groups with some subjects in each of the mild Child-Pugh A category (Group 1), and the moderate Child-Pugh B category (Group 2).
(§3) Dosing: Subjects receive a single ascending dose, under fasting condition, at the following dose levels:
(§4) Each of the cohorts is dosed sequentially starting with the lowest dose. Subjects with mild or moderate hepatic impairment enrolled in Cohort 1 are optionally enrolled in Cohorts 2, 3, and 4. For each dose cohort, enrollment of subjects with mild or moderate hepatic impairment is done in parallel. An evaluation of safety and tolerability of the combined mild and moderate hepatic impairment subject data is done at each dose level before proceeding to the next dose level.
(§5) Blood: Blood from the patients of each cohort is collected in K2EDTA tubes. The plasma fractions are separated by centrifugation and stored frozen until analysis. Blood samples are collected at the following time points: 0 h (prior to the dose), 1.5, 3, 5, 7, 9, 12, 24, 36, 48, and 72 h after the dose.

clinical = details: human, plasma, oral
Excerpt: as §1, §2, §3, §4, §5

Cl.Oc1ccc2c3c1OC1[C@@H](O)CC[C@@]4(O)[C@@H](C2)N(CC2CCC2)CC[C@]314 (stereo partly drawn) [nalbuphine, 17-(cyclobutylmethyl)-4,5α-epoxymorphinian-3, 6α, 14-triol, hydrochloride]
Half-life across cohorts [1]: similar
AUC(0-t) (clinical; 27 mg, AUC0-t Mean, 27 mg single dose, Cohort 1, mild hepatic impairment (Child Pugh A)): 48.9 ng·h/mL
AUC(0-t) (clinical; 27 mg, AUC0-t Mean, 27 mg single dose, Cohort 1, moderate hepatic impairment (Child Pugh B)): 244 ng·h/mL
AUC(0-t) (clinical; 27 mg, AUC0-t Mean, 27 mg single dose, Cohort 1, severe hepatic impairment (Child Pugh C)): 489 ng·h/mL
Cmax (clinical; 27 mg, Cmax Mean, 27 mg single dose, Cohort 1, mild hepatic impairment (Child Pugh A)): 3.56 ng/mL
Cmax (clinical; 27 mg, Cmax Mean, 27 mg single dose, Cohort 1, moderate hepatic impairment (Child Pugh B)): 14.6 ng/mL
Cmax (clinical; 27 mg, Cmax Mean, 27 mg single dose, Cohort 1, severe hepatic impairment (Child Pugh C)): 28.3 ng/mL
AUC(0-t) (clinical; 162 mg, mean AUC0-t, 162 mg single dose, Cohort 4, mild hepatic impairment (Child Pugh A)): 375 ng·h/mL
AUC(0-t) (clinical; 162 mg, mean AUC0-t, 162 mg single dose, Cohort 4, moderate hepatic impairment (Child Pugh B)): 1230 ng·h/mL
Cmax (clinical; 162 mg, mean Cmax, 162 mg single dose, Cohort 4, mild hepatic impairment (Child Pugh A)): 19.9 ng/mL
Cmax (clinical; 162 mg, mean Cmax, 162 mg single dose, Cohort 4, moderate hepatic impairment (Child Pugh B)): 65.4 ng/mL

Source: patent publication US12274696B2, “Methods of administering nalbuphine” (Trevi Therapeutics, Inc., priority 2020, dated 2025)
